Consider one substance from patent publication US20110130346A1, “PEPTIDE CONJUGATES FOR DELVERY OF BIOLOGICALLY ACTIVE COMPOUNDS” (ISIS INNOVATION LIMITED, priority 2008, published 2011).

What all share (assay type): in vivo, mdx mice
Test [1] relates to exon and intron 23 of the dystrophin gene. The experiment in a line: Example 2: systemic intravenous injection, RT-PCR of exon skipping. Particulars: intravenous 25, 50 and 100 mg/kg; gastrocnemius and abdominal muscles, not other muscles. From the text: (§1) To develop AO splice correction therapy for DMD it is essential to establish effective systemic dystrophin correction since DMD is a systemic disease affecting all skeletal muscles, including the diaphragm, and cardiac muscle. Other AO chemistries, including 2′OMePS and PMO chemistries, have been reported to yield variable dystrophin splice correction following intravenous systemic delivery in mdx mice, with high systemic doses being required to detect appreciable efficacy. Here we wished to evaluate the potential of neutral PNA AOs for systemic splice correction in body-wide muscles, and initially evaluated a dose-response using three intravenous single PNA doses of 25, 50 and 100 mg/kg administered to 6 week old mdx mice via tail vein injections. Dystrophin expression was studied by immunostaining of muscle tissue sections from various peripheral muscles (including quadriceps, gastrocnemius, biceps, abdominal wall, diaphragm) and heart muscle three weeks after AO administration (FIG. 7A). […] Measures of phenotypic correction, including serum biochemical measurements of creatine kinase and AST/ALT enzyme levels were negative (FIGS. 7C and D).
Total RNA was extracted from tested muscle tissues with Trizol (Invitrogen, UK) and 200 ng of RNA template was used for 20 μl RT-PCR with OneStep RT-PCR kit (Qiagen, UK). […]

The test system is the same in test [2]. As to the kind of experiment: Example 2: systemic intravenous injection, Western blot of dystrophin. Particulars: intravenous 25, 50 and 100 mg/kg. The text has this:
(§2) To develop AO splice correction therapy for DMD it is essential to establish effective systemic dystrophin correction since DMD is a systemic disease affecting all skeletal muscles, including the diaphragm, and cardiac muscle. Other AO chemistries, including 2′OMePS and PMO chemistries, have been reported to yield variable dystrophin splice correction following intravenous systemic delivery in mdx mice, with high systemic doses being required to detect appreciable efficacy. Here we wished to evaluate the potential of neutral PNA AOs for systemic splice correction in body-wide muscles, and initially evaluated a dose-response using three intravenous single PNA doses of 25, 50 and 100 mg/kg administered to 6 week old mdx mice via tail vein injections. […]
The collected sections were placed in a 1.5 ml polypropylene eppendorf tube (Anachem, UK) on dry ice. […] The supernatant was collected and the protein concentration was quantified by Bradford assay (Sigma, UK). […] The bound primary antibody was detected by horseradish peroxidise-conjugated rabbit anti-mouse IgGs and the ECL Western Blotting Analysis system (Amersham Pharmacia Biosciences, UK). The intensity of the bands obtained from treated mdx muscles was measured by Image J software; the quantification is based on band intensity and area, and is compared with that from normal muscles of C57BL6 mice.
On the technique in general: In western blotting, separated proteins are transferred to a membrane and probed.

The nature of test [3]: Example 2: serum creatine kinase and AST/ALT after systemic injection. Particulars: intravenous 25, 50 and 100 mg/kg.
From the text: as §1
Serum and plasma were taken from the mouse jugular vein immediately after the killing with CO2 inhalation. […]

For test [4], the system named is exon and intron 23 of the dystrophin gene. As to the kind of experiment: Example 2: intramuscular injection into TA muscle, dystrophin-positive fibres by immunohistochemistry. The text has this:
Here we aim to evaluate the potential of PNA AOs as splice correcting therapeutic agents for DMD, by studying their activity under a range of conditions in mdx mice carrying a nonsense mutation in exon 23 of the dystrophin gene. PNAs and PNA-pepide conjugates were studied following intramuscular delivery into adult (6-8 week old) mdx tibialis anterior (TA) muscles or via systemic intravenous tail vein delivery in mdx mice unless otherwise stated.
For intramuscular studies the TA muscle of each experimental mdx mouse was injected with a […] dose of PNA and PNA-peptide conjugates with saline at a final concentration of 125 μg/ml. For systemic intravenous injections, Various amount of PNA or PNA-peptide conjugates in 80 μl saline buffer were injected into tail vein of mdx mice at the final dose of 25 mg/kg, 50 mg/kg and 100 mg/kg, respectively. The animals were killed at various time points after injection by CO2 inhalation and tissues were removed and snap-frozen in liquid nitrogen-cooled isopentane and stored at −80° C.
Sections of 8 μm were cut from at least two-thirds of the muscle length of TA, quadriceps, gastrocnemius, biceps, abdominal wall and diaphragm muscles and cardiac muscle at 100 μm intervals. The sections were then examined for dystrophin expression with a polyclonal antibody 2166 against the dystrophin carboxyl-terminal region. The maximum number of dystrophin-positive fibres in one section was counted using the Zeiss AxioVision fluorescence microscope. The intervening muscle sections were collected either for RT-PCR analysis and Western blot or as serial sections for immunohistochemistry. Polyclonal antibodies were detected by goat-anti-rabbit IgGs Alexa Fluro 594 (Molecular Probe, UK). […]

The test system is the same in test [5]. As to the kind of experiment: Example 2: systemic intravenous tail vein injection, dystrophin immunostaining of muscles.
From the text: as §2
Sections of 8 μm were cut from at least two-thirds of the muscle length of TA, quadriceps, gastrocnemius, biceps, abdominal wall and diaphragm muscles and cardiac muscle at 100 μm intervals. […] The maximum number of dystrophin-positive fibres in one section was counted using the Zeiss AxioVision fluorescence microscope. […] Polyclonal antibodies were detected by goat-anti-rabbit IgGs Alexa Fluro 594 (Molecular Probe, UK). Polyclonal antibodies were detected by goat-anti-rabbit IgGs Alexa 594 (Molecular Probe, UK).

In the case of 5′-ggccaaaccteggcttacct-3′ [PNA], the “exon skipping (RT-PCR)” value in test [1] is given as “only very level of exon skipping”. Besides, the “dystrophin protein (Western blot)” value in test [2] is “Under detectable level”. In addition, in test [3], the “phenotypic correction: serum creatine kinase and AST/ALT enzyme levels” value was “negative”. The “number of dystrophin-positive fibres” value in test [4] (12-month old mdx mice, 5 ug intramuscular into TA, two weeks) is 388±24; in test [4] (two month old mdx mice, 5 ug intramuscular, 8 week time point (peak)) it was “greater than 650”. In test [4] (two month old mdx mice, 5 ug intramuscular), the “persistence of splice correction effect” value was “greater than 20 weeks”. The “dose response of dystrophin positive fibres” value in test [5] (intravenous 25, 50 and 100 mg/kg) is given as “No evidence of a dose response”. The “number of dystrophin positive fibres in peripheral muscles and heart” value in test [5] (single intravenous 25, 50 and 100 mg/kg, 6 week old mdx mice, three weeks, all muscle groups except diaphragm and heart) is recorded as “low nevertheless showing a significant increase”.
